Several values for one entry are separate records, joined by “and”; a condition that tells them apart may be missing. Equal entries are not always repeated. Where two headings read alike, the source gives them in different places.

For series [1], the system named is HeLa-Luc cells. Briefly: Luciferase assay after siRNA transfection in the presence of TLR7/8 agonists (Example 9). In kind it is cell-based, human. Conditions: imiquimod 0.25 μg/ml final concentration (row A, column 1) + anti-luciferase-siRNA/Metafectene Pro; 48 hours. As for the experimental part:
(§1) The cells are to be plated out at a cell count of 2×10^4 cells/cm^2 per well of 250 μl of complete medium.
(§2) First of all, the first 5 wells of the first three rows of a 48-well plate are each filled with 30 μl of PBS.
(§3) The stock solution of anti-luciferase-siRNA and the non-specific-control-siRNA is adjusted to a concentration of 1 pmol/10 μl with PBS. Then 10 μl of the working solution of the anti-luciferase-siRNA are pipetted into each of the first three wells of the first three rows of the 48-well plate. 10 μl of the working solution of the non-specific-control-siRNA are pipetted into each fourth well.
(§4) The Metafectene Pro reagent is diluted 1:300 with PBS. 20 μl of that dilution are introduced into each well containing siRNA.
(§5) The lipoplexes are then incubated for 20 minutes at room temperature. Then 250 μl of cell suspension are added to each well.
Two different agonists are added to the first 2 columns of the two 48-well plates, with three different working concentrations of the agonists being used. The agonists are in lyophilised form. They are dissolved with endotoxin-free water to form stock solutions having the concentration 100 μg/ml. The stock solutions are each diluted 1:10 with water to give working solutions.
Of the imiquimod working solution, 0.78 μl (=0.25 μg/ml final concentration) are pipetted into A1, 15.5 μl (=5 μg/ml) into A2 and 31 μl (=10 μg/ml) into A3. […]

Series [2] has as its system HeLa-Luc cells. Briefly: Vitality determination with trypan blue after siRNA transfection in the presence of TLR7/8 agonists (Example 9). Conditions: 48 hours. As for the experimental part: as §1, §2, §3, §4, §5
Two different agonists are added to the first 2 columns of the two 48-well plates, with three different working concentrations of the agonists being used. The agonists are in lyophilised form. They are dissolved with endotoxin-free water to form stock solutions having the concentration 100 μg/ml. The stock solutions are each diluted 1:10 with water to give working solutions. […]
After the addition of the agonists, the two 48-well plates are incubated in a CO2 incubator for 48 hours.
After an incubation period of 48 hours, the cells of a plate are trypsinised and, using a Neubauer counting chamber, vitality measurement is carried out for each well with trypan blue.

Series [3] concerns HeLa-Luc cells. Briefly: Luciferase assay after anti-luciferase-siRNA transfection in the presence of kinase inhibitors (Example 8). Conditions: anti-luciferase-siRNA 1 pMol/well, Metafectene Pro.
Series [4] has as its system HeLa cells. Conditions: transfection repeated on 3rd day, pre-incubation 2 hours, development time 10 min. The procedure:
1st day: HeLa cells are sown in a 48-well plate, the cells being plated out at a cell count of 0.8*10^5 cells per well of 250 μl of complete medium (10% FCS). […] 1 mg of inhibitor is dissolved in 100 μl of DMSO (stock solution). Dilution is then carried out with PBS 1:20 (working solution). […] The lipoplexes are then prepared. […] The two solutions are then mixed and incubated for 15 min. Finally, 50 μl of the lipoplex solution are added to each well. […] Analogous to Example 1 (with half amounts)

Series [5] concerns HeLa cells. Briefly: β-Galactosidase reporter gene assay after single or repetitive transfection with antagonist (Example 4). In kind it is cell-based, human. The settings on record: development time 10 min; for β-Galactosidase assay absorption, average value of duplicates 1&2/2: single transfection. The procedure: 1st day: Analogous to Example 3.
The antagonist is adjusted to a concentration of 0.025 μg/μl with PBS.
The lipoplexes are then prepared.
Analogously to Example 3.
Analogous to Example 1 (with half amounts)
(A reporter such as luciferase makes a cellular process visible.)

Where [6] appears, read: repetitive transfection, antagonist 0.0625 μg per well.
[7] abbreviates: repetitive transfection, antagonist 0.125 μg per well.
Where [8] appears, read: repetitive transfection, antagonist 0.250 μg per well.
Setting [9] is: repetitive transfection, antagonist 0.375 μg per well.
Setting [10] is: repetitive transfection, antagonist 0.75 μg per well.

Turning to `CC(C)Cn1cnc2c(N)nc3ccccc3c21` [Imiquimod, 1-(2-methylpropyl)-1H-imidazo[4,5-c]quinoline-4-amine], in the series on HeLa-Luc cells [1], the “Luciferase assay, average value of 3×3 measurements” value (“Luciferase assay, average value” for short) turned out to be 676 RLU/μl cell extract/sec. Also, the “Vitality (trypan blue staining)” value in the series on HeLa-Luc cells [2] (Imiquimod 0.5 μg/ml + anti-luciferase-siRNA/Metafectene Pro) turned out to be 98.6%; with HeLa-Luc cells [2] (Imiquimod 5 μg/ml + anti-luciferase-siRNA/Metafectene Pro), 88.7%; in the series with HeLa-Luc cells [2] (Imiquimod 10 μg/ml + anti-luciferase-siRNA/Metafectene Pro), 88.6%.
In the case of `C[S+]([O-])c1ccc(-c2nc(-c3ccncc3)c(-c3ccc(F)cc3)[nH]2)cc1` (stereo not shown) [SB203580], the “Luciferase assay, average value” value in the series with HeLa-Luc cells [3] (single transfection, SB203580 5 μM) is reported as 693 RLU/μl ell extract/sec; in the series on HeLa-Luc cells [3] (single transfection, SB203580 10 μM), 747 RLU/μl ell extract/sec; with HeLa-Luc cells [3] (single transfection, SB203580 20 μM), 630 RLU/μl ell extract/sec; in the series on HeLa-Luc cells [3] (single transfection, SB203580 30 μM) it was 671 RLU/μl ell extract/sec; with HeLa-Luc cells [3] (single transfection, SB203580 40 μM), 669 RLU/μl ell extract/sec; in the series with HeLa-Luc cells [3] (transfection repeated on 3rd day, SB203580 5 μM), 696 RLU/μl ell extract/sec. Further, the “Luciferase assay, average value” value in the series with HeLa-Luc cells [3] (transfection repeated on 3rd day, SB203580 10 μM) was determined as 656 RLU/μl ell extract/sec; with HeLa-Luc cells [3] (transfection repeated on 3rd day, SB203580 20 μM), 617 RLU/μl ell extract/sec; with HeLa-Luc cells [3] (transfection repeated on 3rd day, SB203580 30 μM), 587 RLU/μl ell extract/sec; with HeLa-Luc cells [3] (transfection repeated on 3rd day, SB203580 40 μM) it was 610 RLU/μl ell extract/sec.
`N#CC(=C(/N)Sc1ccccc1N)/C(C#N)=C(/N)Sc1ccccc1N` [U0126, 1,4-diamino-2,3-dicyano-1,4-bis(o-aminophenylmercapto)butadiene]: the “β-Galactosidase assay absorption, average value of 3 measurements” value is on record as 0.72 in the series with HeLa cells [4] (inhibitor 5 μM (well E)); 0.92 with HeLa cells [4] (inhibitor 10 μM (well D)); 0.79 in the series on HeLa cells [4] (inhibitor 25 μM (well C)); 0.90 in the series with HeLa cells [4] (inhibitor 50 μM (well B)); 0.97 with HeLa cells [4] (inhibitor 75 μM (well A)). In the series with HeLa-Luc cells [3] (single transfection, U0126 75 μM), the “Luciferase assay, average value” value is reported as 260 RLU/μl ell extract/sec.
With “Human Interleukin-1 Receptor Antagonist (IL1-ra Human): Human interleukin-1 receptor antagonist, Biomol, Cat. No. 54592”, the “β-Galactosidase assay absorption, average value of 3 measurements” value with HeLa cells [5] (setting [6]) is 0.791 and 1.021; with HeLa cells [5] (setting [7]) it was 0.856 and 1.185; in the series with HeLa cells [5] (setting [8]), 1.035 and 1.026; in the series with HeLa cells [5] (setting [9]), 1.076 and 1.081; in the series on HeLa cells [5] (setting [10]) it was 1.161 and 1.207; in the series on HeLa cells [5] (single transfection (columns 1, 2), antagonist 0.0625 μg per well, pre-incubation 7 hours), 0.427 and 0.448. Moreover, the “β-Galactosidase assay absorption, average value of 3 measurements” value in the series with HeLa cells [5] (single transfection (columns 1, 2), antagonist 0.125 μg per well, pre-incubation 7 hours) was 0.415 and 0.435; with HeLa cells [5] (single transfection (columns 1, 2), antagonist 0.250 μg per well, pre-incubation 7 hours) it was 0.393 and 0.439; in the series with HeLa cells [5] (single transfection (columns 1, 2), antagonist 0.375 μg per well, pre-incubation 7 hours) it was 0.392 and 0.460; with HeLa cells [5] (single transfection (columns 1, 2), antagonist 0.75 μg per well, pre-incubation 7 hours), 0.443 and 0.455. Further, the “β-Galactosidase assay absorption, average value of duplicates 3&4/2” value in the series with HeLa cells [5] (setting [6]) is listed as 0.906; in the series with HeLa cells [5] (setting [7]) it was 1.020; in the series on HeLa cells [5] (setting [8]), 1.030; with HeLa cells [5] (setting [9]), 1.078; in the series with HeLa cells [5] (setting [10]) it was 1.184. Also, the “β-Galactosidase assay absorption, average value of duplicates 1&2/2” value was 0.437 in the series on HeLa cells [5] (antagonist 0.0625 μg per well); 0.425 in the series on HeLa cells [5] (antagonist 0.125 μg per well); 0.416 in the series with HeLa cells [5] (antagonist 0.250 μg per well); 0.426 with HeLa cells [5] (antagonist 0.375 μg per well); 0.449 in the series on HeLa cells [5] (antagonist 0.75 μg per well).

The record behind these values is patent US20110045001A1, “Transfection results of non-viral gene delivery systems by influencing of the innate immune system” (Biontex Laboratories GmbH, priority 2008, published 2011).
